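Cells were grown in 96-well plates and exposed to each compound for 48 hours at five concentrations; endpoints were interpolated linearly between bracketing concentrations, or set to the highest concentration if not reached. The concentration for 50% growth inhibition is given as GI50.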 Calls of active or inactive are those of the source. Cut-off read from the data, not from the text of the source: active = GI50 up to about 1.1 µM and inactive = higher.
How the values were obtained:
Assay in all cases: NCI tumour cell line growth inhibition, 48 h
UO-31 = system: UO-31
A498 = system: A498
SNB-19 = system: SNB-19
ACHN = system: ACHN
BT-549 = system: BT-549
NCI-H226 = system: NCI-H226
KM12 = system: KM12
UACC-257 = system: UACC-257
SF-295 = system: SF-295
SK-MEL-28 = system: SK-MEL-28
786-0 = system: 786-0
MCF7 = system: MCF7
MOLT-4 = system: MOLT-4
K562 = system: K562
MDA-MB-435 = system: MDA-MB-435
OVCAR-8 = system: OVCAR-8
PC-3 = system: PC-3
SR = system: SR
RPMI-8226 = system: RPMI-8226
DU-145 = system: DU-145

| Compound | GI50 (UO-31) | GI50 (A498) | GI50 (SNB-19) | GI50 (ACHN) | GI50 (BT-549) | GI50 (NCI-H226) | GI50 (KM12) | GI50 (UACC-257) | GI50 (SF-295) | GI50 (SK-MEL-28) | GI50 (786-0) | GI50 (MCF7) | GI50 (MOLT-4) | GI50 (K562) | GI50 (MDA-MB-435) | GI50 (OVCAR-8) | GI50 (PC-3) | GI50 (SR) | GI50 (RPMI-8226) | GI50 (DU-145) |
| --- | --- | --- | --- | --- | --- | --- | --- | --- | --- | --- | --- | --- | --- | --- | --- | --- | --- | --- | --- | --- |
| CN1CCN([C@H]2C[C@H]3[C@@H]4CC=C5C[C@@H](N6CCCC6)CC[C@]5(C)[C@H]4CC[C@]3(C)[C@H]2O)CC1 | 94.4 µM (inactive) | 46.1 µM (inactive) | 90.4 µM (inactive) | > 100 µM (inactive) | 95.5 µM (inactive) | > 100 µM (inactive) | 56 µM (inactive) | 23.2 µM (inactive) | 48.4 µM (inactive) | 20.6 µM (inactive) | 38.4 µM (inactive) | > 100 µM (inactive) | 23.7 µM (inactive) | 14.9 µM (inactive) | 26.1 µM (inactive) | 66.8 µM (inactive) | 47.9 µM (inactive) | < 0.01 µM (active) | 24.9 µM (inactive) | – |
| Cn1nc2n(c1=O)CCCN2 | – | > 100 µM (inactive) | > 100 µM (inactive) | > 100 µM (inactive) | – | > 100 µM (inactive) | > 100 µM (inactive) | > 100 µM (inactive) | > 100 µM (inactive) | > 100 µM (inactive) | > 100 µM (inactive) | – | – | > 100 µM (inactive) | > 100 µM (inactive) | > 100 µM (inactive) | > 100 µM (inactive) | > 100 µM (inactive) | > 100 µM (inactive) | > 100 µM (inactive) |
| c1ccc(/N=c2/sc3ccccc3s/c2=N/c2ccccc2)cc1 | 1.58 µM (inactive) | 2.33 µM (inactive) | 4.71 µM (inactive) | 1.66 µM (inactive) | – | 2.88 µM (inactive) | 1.99 µM (inactive) | 3.72 µM (inactive) | 3.76 µM (inactive) | 1.81 µM (inactive) | 1.74 µM (inactive) | – | 5.18 µM (inactive) | 3.78 µM (inactive) | 1.9 µM (inactive) | 1.89 µM (inactive) | 12.8 µM (inactive) | 3.35 µM (inactive) | 4.57 µM (inactive) | 5.02 µM (inactive) |
| CCSC1=N/C(=C\c2ccco2)C(Nc2ccc(C)cc2)=N1 | > 100 µM (inactive) | > 100 µM (inactive) | > 100 µM (inactive) | > 100 µM (inactive) | – | > 100 µM (inactive) | > 100 µM (inactive) | – | > 100 µM (inactive) | > 100 µM (inactive) | > 100 µM (inactive) | > 100 µM (inactive) | > 100 µM (inactive) | > 100 µM (inactive) | > 100 µM (inactive) | > 100 µM (inactive) | > 100 µM (inactive) | > 100 µM (inactive) | > 100 µM (inactive) | > 100 µM (inactive) |
| COc1ccccc1C1=C2C(=O)N(C)C(c3ccccc3OC)=C2C(=O)N1C | 50.8 µM (inactive) | 63 µM (inactive) | 32 µM (inactive) | 68.5 µM (inactive) | > 100 µM (inactive) | 84.3 µM (inactive) | > 100 µM (inactive) | 79.8 µM (inactive) | 51.4 µM (inactive) | 76.6 µM (inactive) | 29.5 µM (inactive) | > 100 µM (inactive) | > 100 µM (inactive) | > 100 µM (inactive) | > 100 µM (inactive) | 39.2 µM (inactive) | > 100 µM (inactive) | – | – | > 100 µM (inactive) |
| COc1cc(OC)cc(-n2c(N)c(-c3nc4ccccc4s3)c3ccc([N+](=O)[O-])cc3c2=O)c1 | 40.4 µM (inactive) | 28.4 µM (inactive) | 18.1 µM (inactive) | 12.5 µM (inactive) | > 100 µM (inactive) | 25.7 µM (inactive) | 56.9 µM (inactive) | > 100 µM (inactive) | 28.5 µM (inactive) | > 100 µM (inactive) | 13.1 µM (inactive) | > 100 µM (inactive) | – | 13.4 µM (inactive) | > 100 µM (inactive) | 13.3 µM (inactive) | – | 24.3 µM (inactive) | > 100 µM (inactive) | 43.8 µM (inactive) |
| CCCCCCCCCCCCc1ccc(S(=O)(=O)O)cc1 | > 100 µM (inactive) | 26.8 µM (inactive) | > 100 µM (inactive) | > 100 µM (inactive) | – | 90.6 µM (inactive) | > 100 µM (inactive) | 64.6 µM (inactive) | > 100 µM (inactive) | > 100 µM (inactive) | > 100 µM (inactive) | 98.9 µM (inactive) | > 100 µM (inactive) | > 100 µM (inactive) | > 100 µM (inactive) | > 100 µM (inactive) | > 100 µM (inactive) | – | > 100 µM (inactive) | > 100 µM (inactive) |
| COc1ccc(-c2cc(=O)c3c(OC)c(OC)c(OC)cc3o2)cc1 | 19 µM (inactive) | 19.8 µM (inactive) | 45 µM (inactive) | 24.4 µM (inactive) | 31.7 µM (inactive) | 27 µM (inactive) | – | 40.8 µM (inactive) | 24.5 µM (inactive) | 45.6 µM (inactive) | 19.9 µM (inactive) | 37.4 µM (inactive) | 18 µM (inactive) | 34.4 µM (inactive) | 32.2 µM (inactive) | 35.2 µM (inactive) | – | 11.3 µM (inactive) | 27 µM (inactive) | 25.5 µM (inactive) |

From ChEMBL document CHEMBL1201862, “PubChem BioAssay data set” (2004)
